From EPA's ToxRefDB 2

Experiments:
rat [1] = conditions: Multigenerational reproductive toxicity study, other, Oral, Gavage/Intubation, dose end: 2 generation
mouse [2] = conditions: Carcinogenicity, cd1, Oral, Water, dose end: 104 week, group: systemic
dog [3] = conditions: Chronic toxicity, beagle, Oral, Gavage/Intubation, dose end: 52 week, group: systemic
rat [4] = conditions: Chronic toxicity, other, Oral, Gavage/Intubation, dose end: 91 week, group: systemic
rabbit [5] = conditions: Prenatal developmental toxicity study, new zealand white, Oral, Gavage/Intubation, dose end: 19 GD
rat [6] = conditions: Prenatal developmental toxicity study, other, Oral, Gavage/Intubation, dose end: 15 GD
rat [7] = conditions: Prenatal developmental toxicity study, other, Oral, Gavage/Intubation, dose end: 15 GD; remark: listed apart in the source
mouse [8] = conditions: Carcinogenicity; cd1; Oral; Feed; dose end: 78 week; group: systemic; systemic / in life observation / body weight / body weight gain + systemic / pathology microscopic / epididymis / concretion + systemic / …
dog [9] = conditions: Chronic toxicity; beagle; Oral; Capsule; dose end: 52 week; group: systemic; systemic / clinical chemistry / cholesterol / cholesterol + systemic / hematology / lymphocyte / lymphocyte + systemic / in life observation…
rat [10] = conditions: Combined chronic toxicity/carcinogenicity; sprague dawley; Oral; Feed; dose end: 104 week; group: systemic; systemic / in life observation / body weight / body weight
rat [11] = conditions: Subchronic oral toxicity in rodents, sprague dawley, Feed, dose end: 13 week, group: systemic
rat [12] = conditions: Multigenerational reproductive toxicity study, other, Oral, Feed, dose end: 2 generation
rabbit [13] = conditions: Prenatal developmental toxicity study; new zealand white; Oral; Gavage/Intubation; dose end: 19 GD; group: maternal; reproductive / reproductive performance / postimplantation loss / postimplantation loss + reproductive / reproductive performance / …
rat [14] = conditions: Other (NonGuideline or Guideline Not Listed); sprague dawley; Oral; Gavage/Intubation; dose end: 7 day; group: cannot be grouped; systemic / clinical chemistry / alanine aminotransferase (alt/sgpt) / alanine aminotransferase (alt/sgpt) + systemic / clinical chemistry / …
[15] = group: offspring, developmental / offspring survival late / viability index / viability index + systemic / in life observation / body weight / offspring (pup…
[16] = group: parental, systemic / in life observation / body weight / body weight + systemic / in life observation / body weight / body weight gain + systemic / in…
[17] = systemic / in life observation / body weight / body weight gain
[18] = systemic / in life observation / mortality / mortality + systemic / pathology microscopic / kidney / degeneration + systemic / pathology …
[19] = systemic / clinical chemistry / cholesterol / cholesterol + systemic / hematology / mean corpuscular (cell) volume (mcv) / mean corpuscular…
[20] = systemic / hematology / mean corpuscular hemoglobin (mch) / mean corpuscular hemoglobin (mch)
[21] = systemic / clinical chemistry / glucose / glucose
[22] = group: developmental, developmental / developmental malformation / brain / [other] + developmental / developmental malformation / general / crown-rump length + …
[23] = group: maternal, systemic / in life observation / body weight / body weight gain
[24] = group: maternal, systemic / organ weight / uterus / nos
[25] = group: developmental, developmental / developmental malformation / bone / bipartite ossification + developmental / developmental malformation / bone / thickened…
[26] = group: developmental, developmental / developmental malformation / bone / bipartite ossification + developmental / developmental malformation / bone / cervical + …
[27] = group: maternal, reproductive / reproductive performance / postimplantation loss / postimplantation loss + reproductive / reproductive performance / …
[28] = systemic / clinical chemistry / alanine aminotransferase (alt/sgpt) / alanine aminotransferase (alt/sgpt) + systemic / clinical chemistry / …
[29] = group: offspring, systemic / in life observation / body weight / offspring (pup) weight
[30] = group: parental, systemic / in life observation / body weight / body weight gain + systemic / in life observation / food consumption / food consumption

`N#CN` [Cyanamide] showed an LEL (rat [1]; [15]) of 1.25 mg/kg/day, an LOAEL (rat [1]; [15]) of 1.25 mg/kg/day and an NEL (rat [1]; [15]) of less than 1.25 mg/kg/day. For the same compound, the NOAEL (rat [1]; [15]) was less than 1.25 mg/kg/day, the LEL (rat [1]; [16]) was 3.75 mg/kg/day and the LOAEL (rat [1]; [16]) was 3.75 mg/kg/day. The NEL (rat [1]; [16]) was 1.25 mg/kg/day, the NOAEL (rat [1]; [16]) was 1.25 mg/kg/day and the LEL (mouse [2]; [17]) was 5 mg/kg/day. It also gave an NEL (mouse [2]; [17]) of less than 5 mg/kg/day, an LOAEL (mouse [2]; [18]) of 16.9 mg/kg/day and an NOAEL (mouse [2]; [18]) of 6.9 mg/kg/day. The LOAEL (dog [3]; [19]) was 2 mg/kg/day, the NOAEL (dog [3]; [19]) was 0.4 mg/kg/day and the LEL (dog [3]; [20]) was 0.4 mg/kg/day. The NEL (dog [3]; [20]) was less than 0.4 mg/kg/day, the LEL (rat [4]; [21]) was 1 mg/kg/day and the NEL (rat [4]; [21]) was less than 1 mg/kg/day. The LOAEL (rat [4]; systemic / in life observation / body weight / body weight gain + systemic / pathology microscopic / thyroid gland / colloid content) was 7.5 mg/kg/day, the NOAEL (rat [4]; systemic / in life observation / body weight / body weight gain + systemic / pathology microscopic / thyroid gland / colloid content + …) was 2.5 mg/kg/day and the LOAEL (rabbit [5]; [22]) was 36 mg/kg/day. The NEL (rabbit [5]; [22]) was 4 mg/kg/day, the NOAEL (rabbit [5]; [22]) was 12 mg/kg/day and the LEL (rabbit [5]; group: developmental, developmental / developmental malformation / eye / retina fold) was 12 mg/kg/day. It also gave an LOAEL (rabbit [5]; [23]) of 12 mg/kg/day, an LEL (rabbit [5]; [24]) of 4 mg/kg/day and an NEL (rabbit [5]; [24]) of less than 4 mg/kg/day. The NOAEL (rabbit [5]; group: maternal, systemic / organ weight / uterus / nos + systemic / in life observation / body weight / body weight gain + reproductive / reproductive …) was 4 mg/kg/day, the LEL (rat [6]; [25]) was 90 mg/kg/day and the LOAEL (rat [6]; [25]) was 90 mg/kg/day. It also gave an NEL (rat [6]; [25]) of 30 mg/kg/day, an NOAEL (rat [6]; [25]) of 30 mg/kg/day and an LEL (rat [6]; [23]) of 10 mg/kg/day. It also gave an LOAEL (rat [6]; [23]) of 10 mg/kg/day, an NEL (rat [6]; [23]) of less than 10 mg/kg/day and an NOAEL (rat [6]; [23]) of less than 10 mg/kg/day.
Compound `COC(=O)c1c(Cl)nn(C)c1S(=O)(=O)NC(=O)Nc1nc(OC)cc(OC)n1` [Halosulfuron-methyl] has an LEL (rat [7]; [26]) of 750 mg/kg/day, an LOAEL (rat [7]; [26]) of 750 mg/kg/day and an NEL (rat [7]; [26]) of 250 mg/kg/day. The NOAEL (rat [7]; [26]) was 250 mg/kg/day, the LEL (rat [7]; [27]) was 750 mg/kg/day and the LOAEL (rat [7]; [27]) was 750 mg/kg/day. The NEL (rat [7]; [27]) was 250 mg/kg/day, the NOAEL (rat [7]; [27]) was 250 mg/kg/day and the LEL (mouse [8]) was 972 mg/kg/day. The LOAEL (mouse [8]) was 972 mg/kg/day, the NEL (mouse [8]) was 410 mg/kg/day and the NOAEL (mouse [8]) was 410 mg/kg/day. It also gave an LEL (dog [9]) of 10 mg/kg/day, an LOAEL (dog [9]) of 10 mg/kg/day and an NEL (dog [9]) of 1 mg/kg/day. The NOAEL (dog [9]) was 1 mg/kg/day, the LEL (rat [10]) was 139 mg/kg/day and the LOAEL (rat [10]) was 139 mg/kg/day. It also gave an NEL (rat [10]) of 56.3 mg/kg/day, an NOAEL (rat [10]) of 56.3 mg/kg/day and an LOAEL (rat [11]; [28]) of 497 mg/kg/day. For the same compound, the NEL (rat [11]; [28]) was 28.8 mg/kg/day, the NOAEL (rat [11]; [28]) was 116 mg/kg/day and the LEL (rat [11]; systemic / pathology microscopic / kidney / hemosiderosis) was 116 mg/kg/day. It also gave an LEL (rat [12]; [29]) of 61 mg/kg/day, an LOAEL (rat [12]; [29]) greater than 274 mg/kg/day and an NEL (rat [12]; [29]) of 7.4 mg/kg/day. The NOAEL (rat [12]; [29]) was no less than 274 mg/kg/day, the LEL (rat [12]; group: parental, systemic / in life observation / body weight / body weight) was 69.7 mg/kg/day and the NEL (rat [12]; group: parental, systemic / in life observation / body weight / body weight + systemic / in life observation / food consumption / food consumption) was 8.9 mg/kg/day. For the same compound, the LOAEL (rat [12]; [30]) was 223 mg/kg/day, the NOAEL (rat [12]; [30]) was 50.4 mg/kg/day and the LEL (rabbit [13]) was 150 mg/kg/day. It also gave an LOAEL (rabbit [13]) of 150 mg/kg/day, an NEL (rabbit [13]) of 50 mg/kg/day and an NOAEL (rabbit [13]) of 50 mg/kg/day.
Compound `Fc1ccccc1[C@@H](F)COC1CCC(Nc2ncnc3[nH]ncc23)CC1` (stereo partly specified) [MK-968] has an LEL (rat [14]) of 300 mg/kg/day, an LOAEL (rat [14]) greater than 750 mg/kg/day and an NEL (rat [14]) of 10 mg/kg/day. The NOAEL (rat [14]) was no less than 750 mg/kg/day.
